{
  "source": "paper PMC12429880",
  "about": "“EGFR-Targeted Photodynamic Treatment of Triple Negative Breast Cancer Cell Lines Using Porphyrin–Peptide Conjugates: Synthesis and Mechanistic Insight” (Molecules, 2025)",
  "key": {"MCF7": {"system": "MCF7", "assay": "Intrinsic (dark) cytotoxicity, MTT assay without photoactivation", "type": "cell-based", "conditions": "no photoactivation, ten times the maximum PDT concentration (10 µM), mean ± SD of 5 independent experiments, in % (unit assumed)", "protocol": "(§1) The photodynamic effect of conjugates 6–8 on cell viability, compared to the reference compound 2, was evaluated using the MTT ([3-(4,5-dimethylthiazol-2-yl)-2,5-diphenyltetrazolium bromide]) assay. Briefly, 3.5 × 10^3 cells per well were seeded in 96-well plates and incubated for 48 h to allow for adherence and growth. Following this incubation period, cells were treated with increasing concentrations of the test compounds (ranging from 1 to 1000 nM), prepared in complete culture medium. All compound dilutions were prepared to ensure a final DMSO concentration of 0.1% (v/v), which is considered non-toxic. Control samples included cells cultured in complete medium alone, as well as a vehicle control treated with 0.1% DMSO in the absence of any compound (PS treatment was omitted). 24 h after treatment with PS, the medium was replaced with 1X PBS. Photoactivation was performed using a 500 W white tungsten halogen lamp, delivering an irradiance of 22 mW/cm^2, corresponding to a total fluence of 158 J/cm^2 over a 2 h irradiation period. To prevent thermal damage from the light source, a cooling system was employed by placing a circulating water filter between the lamp and the irradiation area to dissipate excess heat. Following irradiation, the PBS was replaced with fresh, PS-free culture medium, and cells were incubated at 37 °C. 24 h later, MTT was added to each well at a final concentration of 0.4 mg/mL, and cells were incubated for 3 h at 37 °C to allow the MTT metabolization in viable cells. The resulting formazan crystals were then dissolved in DMSO. Optical density was measured at 590 nm using an Infinite® 200 PRO plate reader (Tecan Life Sciences, Switzerland), and the resulting data were analyzed by non-linear regression using GraphPad PRISM 9.2.0 software (GraphPad Software Inc., San Diego, CA, USA), and IC50 values were extrapolated from these curves.\n(§2) The potential intrinsic cytotoxicity of the compounds was assessed under identical experimental conditions, except that the photoactivation step was omitted. […]"}, "MDA-MB453 [1]": {"system": "MDA-MB453", "assay": "Intrinsic (dark) cytotoxicity, MTT assay without photoactivation", "type": "cell-based", "conditions": "no photoactivation, ten times the maximum PDT concentration (10 µM), mean ± SD of 5 independent experiments, in % (unit assumed)", "protocol": "as §1, §2"}, "MDA-MB231 [2]": {"system": "MDA-MB231", "assay": "Intrinsic (dark) cytotoxicity, MTT assay without photoactivation", "type": "cell-based", "conditions": "no photoactivation, ten times the maximum PDT concentration (10 µM), mean ± SD of 5 independent experiments, in % (unit assumed)", "protocol": "as §1, §2"}, "MDA-MB453 [3]": {"system": "MDA-MB453", "assay": "Intracellular ROS generation (DCFH-DA)", "type": "cell-based", "conditions": "24 h at IC50, 2 h irradiation with 10 μM DCFH-DA, 3 independent experiments", "protocol": "(§3) Intracellular ROS generation was assessed using the fluorogenic probe 2′,7′-dichlorodihydrofluorescein diacetate (DCFH-DA; Invitrogen, Molecular Probes). Once internalized, DCFH-DA is hydrolyzed by intracellular esterases to form non-fluorescent dichlorodihydrofluorescein (DCFH), which ROS subsequently oxidizes to the highly fluorescent dichlorofluorescein (DCF). MDA-MB453 and MDA-MB231 cells were seeded in black 96-well plates and treated with the respective PSs at their IC50 concentrations for 24 h. Cells were then irradiated in the presence of 10 μM DCFH-DA. To quantify ROS production, fluorescence intensity was measured using a fluorescence microscope (excitation: 488 nm; emission: 520 nm). Quantitative analysis of fluorescence intensity, expressed in arbitrary fluorescence units, was performed using ImageJ software, version 1.53e, and normalized to untreated control samples."}, "MDA-MB231 [4]": {"system": "MDA-MB231", "assay": "Intracellular ROS generation (DCFH-DA)", "type": "cell-based", "conditions": "24 h at IC50, 2 h irradiation with 10 μM DCFH-DA, 3 independent experiments", "protocol": "as §3"}, "[5]": {"assay": "Photostability (photobleaching) under irradiation", "type": "physicochemical", "excerpt": "Compounds incorporating photosensitizing chromophores, such as tetrapyrrolic macrocycles, are susceptible to ROS-mediated photodegradation upon irradiation. Photostability of PSs is a critical parameter for achieving safe, effective, and precise PDT. It ensures sustained generation of ROS, minimizes the formation of potentially toxic or mutagenic degradation products, and preserves the structural and photophysical integrity of the PS during systemic circulation and tumor accumulation. High photostability is particularly important in delayed-activation protocols, enabling selective localization in target tissues. […] Thus, before assessing the photodynamic activity of the conjugates in TNBC cell lines, the photostability of 2 and conjugates 6, 7, and 8 was evaluated under the same conditions employed for the cell viability assays and the other biological studies reported in the present study. […]\nTo assess whether the peptide moiety underwent photoinduced degradation, samples of porphyrin 2 and its conjugates 6–8 were recovered and analyzed by HPLC at the end of the irradiation period.\nFor the chemical and biological analyses a 500 W tungsten white halogen lamp was used. […] The lamp has an irradiance of 22 mW/cm^2 (an average value determined between 380 and 780 nm with a Licor-1800 spectroradiometer, Li-COR, Bad Homburg, Germany), equating to 158 J/cm^2 of fluence over 2 h. […]"}},
  "data": [
    {"molecule": "COC(=O)c1ccc(-c2c3nc(c([N+](=O)[O-])c4ccc([nH]4)c(-c4ccc(C(=O)OC)cc4)c4nc(cc5ccc2[nH]5)C=C4)C=C3)cc1", "note": "[compound 2, 10-Nitro-5,15-bis(4-carbomethoxyphenyl)porphyrin]", "values": [
      {"measurement": "Survival fraction (dark toxicity)", "setting": "MCF7", "result": "89.7 ± 1.16"},
      {"measurement": "Survival fraction (dark toxicity)", "setting": "MDA-MB453 [1]", "result": "90.8 ± 0.66"},
      {"measurement": "Survival fraction (dark toxicity)", "setting": "MDA-MB231 [2]", "result": "91.2 ± 1.26"},
      {"measurement": "Intracellular ROS levels", "setting": "MDA-MB453 [3]", "result": "higher levels of intracellular ROS"},
      {"measurement": "Intracellular ROS levels", "setting": "MDA-MB231 [4]", "result": "higher levels of intracellular ROS"},
      {"measurement": "Soret band intensity retained after irradiation", "setting": "[5]; 10 μM in PBS, 2 h exposure to 500 W tungsten-halogen lamp, 22 mW/cm^2, 158 J/cm^2, UV-Vis", "result": "approximately 90%"},
      {"measurement": "HPLC analysis at the end of the irradiation period (structural integrity)", "setting": "[5]; after 2 h irradiation with 500 W tungsten-halogen lamp, HPLC", "result": "No shifts in retention times were observed"}
    ]}
  ]
}
